Test results as given in US10501511B2, “Low molecular polypeptide for preventing and treating inflammation and use thereof” (SHANGHAI FIRST PEOPLE'S HOSPITAL, priority 2013, dated 2019).
Where a SMILES comes first, the peptide text is derived from it.

Experiments:
[1] = system: Rat Endotoxin-induced Uveitis (EIU) model; assay: Clinical manifestation score in rat endotoxin-induced uveitis (EIU) model; format: in vivo, Wistar rats; settings: 10 μl into vitreous chamber, 24 hours, score 0-4
Experimental: (§1) 1.1 Experiment animals and materials: healthy male Wistar rats, 140-180 g, 8-10 weeks old, were purchased from Animal Center of Chinese Academy of Medical Sciences; Lipopolysaccharides (LPS), derived from Escherichia coli, was purchased from SIGMA-Aldrich Corporation (U.S.A).
(§2) 1.2 Model establishment and Intervention test: Wistar rats were randomly divided into six groups (9-15 rats for each group) which were LPS group, LPS+1 μg/μl H-RN intervention group, LPS+5 μg/μl H-RN group, LPS+10 μg/μl H-RN group, LPS+10 μg/μl DXM and normal control group (PBS) respectively. 200 μg LPS (2 mg/ml, 100 μl, dissolved in sterile saline) was subcutaneously injected into right foot pad of rats, thereby establishing EIU model. The normal control group was subcutaneously injected with 100 μl sterile saline into the right foot pad of rats. In LPS group, LPS+H-RN (1, 5, 10 μg/μl) intervention group and LPS+10 μg/μl DXM group, each rat was subcutaneously injected with 200 μg LPS into the right foot pad, meanwhile, PBS 10 μl, H-RN PBS solution (1, 5 and 10 μg/μl) 10 μl and DXM PBS solution (10 μg/μl) 10 μl were injected into vitreous chamber respectively.
1.3 Qualitative observation for Clinical manifestations of EIU rats: 24 hours after drug and LPS intervention, rats were observed by biological microscope. The clinical manifestations of rats were evaluated and scored by an independent observer according to the method of Behar-Cohen et al. The severity of EIU was represented by 0-4 scores: 0: no inflammation; 1: mild dilation in conjunctiva and iris vessel; 2: moderate dilation in conjunctiva and iris vessel with anterior chamber flare; 3: severe iris hyperemia with severe anterior chamber flare; 4: anterior chamber cellulose-like exudation, posterior synechia, miosis and hypopyon in addition to 3 points.
(§3) The experiment data was shown as x±s. A one-way ANOVA was used to compare the change of inflammatory cell infiltration of rats in each group. P<0.05 represents statistical significance.

[2] = system: Rat Endotoxin-induced Uveitis (EIU) model; assay: Count of inflammatory cell infiltration in aqueous humor of EIU rats; format: in vivo, Wistar rats; settings: 24 hours, LPS group 164.20±142.7
Experimental: as §1, §2
1.4 Quantitative count for inflammatory cell infiltration in rat aqueous humor: 24 hours after LPS and drug intervention, rats were sacrificed in excess of anesthesia. Under an operating microscope, aqueous humor (30-40 μl/binoculus) was collected by anterior chamber paracentesis with a 30-gauge microsyringe at 1 mm from rat corneal limbus. Aqueous humor samples were diluted with an equal amount of trypan blue dye liquid. Cells in aqueous humor were counted using a hemocytometer under light microscopy by two independent technicians for each region (equivalent with 0.1 μl). The average of the four regions was the number of cells contained in 1 μl aqueous humor.
as §3

[3] = system: TNF-α in LPS-induced RAW264.7 cells; assay: TNF-α concentration (ELISA) in supernatant of LPS-induced RAW264.7 cells; format: cell-based, murine; settings: for concentration of TNF-α in cell supernatant: LPS group 1333.00±476.59, control 561.00±25.65; for TNF-α: Samples 10 μM, Control (LPS) 1425.60
Experimental: (§4) 1.1 Experimental cell strain and Materials: murine peritoneal macrophage cell strain RAW264.7 were purchased from the Cell Bank of Shanghai Institutes for Biological Sciences, CAS; DMEM high glucose medium was purchased from GIBCO; mouse tumor necrosis factor-α (TNF-α) and interleukin-6 (IL-6) enzyme-linked immunosorbent assay (ELISA) kits were purchased from R & D company, US.
(§5) 1.2 Model establishment and Intervention test: RAW264.7 cells were cultured in high glucose DMEM medium containing 10% fetal bovine serum (FBS), and 100 U/ml double antibiotics of penicillin and streptomycin, and placed in 37° C., 5% CO2 incubator for amplification. Cells at Logarithmic growth phase were seeded in 24-well plates at 2.5×10^5/ml. When adhered cells grew well and were cultured to 80-90% of confluence, the medium was replaced by a DMEM medium without 10% FBS for serum-starved culture for 24 hours. RAW264.7 cells were randomly divided into control group, LPS group, LPS+H-RN group with sextuplicate wells for each group. LPS group and LPS+H-RN group were added with 500 μl of different concentrations of H-RN (1, 10, 100 μM) and LPS (100 ng/ml) and the control group was added with an equal volume of DMEM medium, each group was placed in 37° C., 5% CO2 incubator and routinely cultured. Cell supernatants were collected after 24 hours.
(§6) The experiment data was shown as x±s. SPSS 11.0 statistical package was used for statistic analysis and one-way ANOVA was used to compare TNF-α and IL-6 level in supernatant between the groups, and P<0.05 represents statistical significance.

[4] = system: IL-6 in LPS-induced RAW264.7 cells; assay: IL-6 concentration (ELISA) in supernatant of LPS-induced RAW264.7 cells; format: cell-based, murine; settings: for concentration of IL-6 in cell supernatant: LPS group 2650.00±106.07, control 213.00±15.56; for IL-6: Samples 10 μM, Control (LPS) 2713.95
Experimental: as §4, §5, §6

[5] = Cytotoxicity assay (MTS colorimetric method), relative growth rate; format: cell-based, murine; settings: mouse, RAW264.7 macrophage cells, 24 hours, MTS, blank 100.05±3.95%, read-out: relative growth rate (RGR) of cells
Experimental: (§7) 1.1 Experimental cell strain and Materials: murine peritoneal macrophage cell line RAW264.7 were purchased from the Cell Bank of Shanghai Institutes for Biological Sciences, CAS; DMEM high glucose medium were purchased from GIBCO; MTS were purchased from Promega, prepared into 300 mmol/L in PBS (pH 6.0) and stored at −20° C. in darkness.
(§8) 1.2 Model establishment and Intervention test: RAW264.7 cells were cultured in high glucose DMEM medium containing 10% fetal bovine serum (FBS), and 100 U/ml double antibiotics of penicillin and streptomycin, and placed in 37° C., 5% CO2 incubator for amplification. Cells at logarithmic growth phase were seeded in 96-well plates at 1×10^5/ml. When adhered cells grew well and were cultured to 80-90% of confluence, the medium was replaced by a DMEM medium without 10% FBS for serum-starved culture for 24 hours.
(§9) 1.3 Cytotoxicity assay (MTS colorimetric method): After the cells were cultured for 24 hours in serum starvation, different concentrations of H-RN (0.1, 1, 10 μM, 100 μM, 1 mM, 100 μl) were added into each well with sextuplicate wells for each concentration. The blank control group was added with an equal volume of DMEM medium. The plates were placed in 37° C., 5% CO2 incubator and cultured for 24 hours, added with 20 μl of MTS solution to each well and cultured for another 4 hours. The absorbance of each well was measured by an enzyme-linked immunosorbent detector in 490 nm, and the relative growth rate (RGR) of cells was calculated. Formula: RGR=A value of experimental group/A value of control group×100%.
(§10) 1.5. Statistic analysis: The experiment data was shown as x±s. SPSS 11.0 statistical package was used for statistic analysis and one-way ANOVA was used to compare RGR of cells between the groups, and P<0.05 represents statistical significance.

RAW264.7 cells = assay: as above; format: cell-based, murine; settings: concentration range of 0.1 μm-1 mM
Experimental: as §7, §8, §9, §10

[6] = Water solubility of synthesized polypeptide powder; format: physicochemical; settings: white powder
[7] = LPS + 10 μg/μl peptide, LPS group 3.56±0.51
[8] = LPS + 10 μg/μl peptide intravitreal
[9] = 1 μM peptide + LPS 100 ng/ml, 24 hours, P>0.05
[10] = 10 μM peptide + LPS 100 ng/ml, 24 hours
[11] = 100 μM peptide + LPS 100 ng/ml, 24 hours

N=C(N)NCCC[C@H](NC(=O)[C@@H]1CCCN1C(=O)[C@H](CC(N)=O)NC(=O)[C@@H](N)CCCNC(=N)N)C(=O)NCC(=O)N[C@@H](CCC(=O)O)C(=O)N[C@@H](CCC(=O)O)C(=O)NCC(=O)NCC(=O)N1CCC[C@H]1C(=O)N[C@@H](Cc1c[nH]c2ccccc12)C(=O)O [H-RN, RNPRGEEGGPW] (H-RNPRGEEGGPW-OH; N-terminus assumed)
EIU clinical score ([1]; LPS + 1 μg/μl H-RN, LPS group 3.56±0.51, normal control 0.50±0.54): 2.42±0.53 | EIU clinical score ([1]; LPS + 5 μg/μl peptide, LPS group 3.56±0.51): 2.12±0.64 | EIU clinical score [1, 7]: 1.92±0.27 | count of inflammatory cells in aqueous humor ([2]; LPS + 1 μg/μl peptide intravitreal): 49.14±40.84 ×10^5 cells/ml | count of inflammatory cells in aqueous humor ([2]; LPS + 5 μg/μl peptide intravitreal): 40.40±31.34 ×10^5 cells/ml | count of inflammatory cells in aqueous humor [2, 8]: 37.35±21.44 ×10^5 cells/ml | TNF-α in cell supernatant compared with LPS group [3, 9]: no significant difference | concentration of TNF-α in cell supernatant [3, 10]: 737.00 ± 155.56 pg/mL | concentration of TNF-α in cell supernatant [3, 11]: 718.00 ± 79.19 pg/mL | IL-6 in cell supernatant compared with LPS group [4, 9]: no significant difference | concentration of IL-6 in cell supernatant [4, 10]: 1385.00 ± 101.54 pg/mL | concentration of IL-6 in cell supernatant [4, 11]: 1355.00 ± 134.35 pg/mL | viability at 24 h, 0.1 µM ([5]; 0.1 μM): 96.9 ± 3.64% | viability at 24 h, 1 µM ([5]; 1 μM): 100 ± 2.67% | viability at 24 h, 10 µM ([5]; 10 μM): 98.3 ± 3.91% | viability at 24 h, 100 µM ([5]; 100 μM): 101 ± 4% | viability at 24 h, 1000 µM ([5]; 1 mM): 95.8 ± 4.92% | toxic effects on cells (RAW264.7 cells): no significant toxic effects | water solubility [6]: good water solubility

GPERWRGPNGE [H-GP, reference compound]
EIU clinical score [1, 7]: 3.32±0.61 | count of inflammatory cells in aqueous humor [2, 8]: 134.66±98.23 ×10^5 cells/ml | TNF-α in cell supernatant compared with LPS group ([3]; 100 μM peptide, p>0.05): no significant difference | IL-6 in cell supernatant compared with LPS group ([4]; 100 μM peptide, p>0.05): no significant difference

KQPRGEEGGPW [Derived polypeptide 2, polypeptide derived from H-RN]
TNF-α [3]: 701.63 pg/mL | IL-6 [4]: 1356.46 pg/mL

NPRGEEGGP [Derived polypeptide 5, polypeptide derived from H-RN]
TNF-α [3]: 745.70 pg/mL | IL-6 [4]: 1395.34 pg/mL

QNPRGDEPGPW [Derived polypeptide 4, polypeptide derived from H-RN]
TNF-α [3]: 765.92 pg/mL | IL-6 [4]: 1411.87 pg/mL

RNPKGEEGGPW [Derived polypeptide 1, polypeptide derived from H-RN]
TNF-α [3]: 724.98 pg/mL | IL-6 [4]: 1365.29 pg/mL

RNPRGEEGGPWCF [Derived polypeptide 6, polypeptide derived from H-RN]
TNF-α [3]: 696.77 pg/mL | IL-6 [4]: 1369.41 pg/mL

RNPRPEEGGAY [Derived polypeptide 3, polypeptide derived from H-RN]
TNF-α [3]: 792.31 pg/mL | IL-6 [4]: 1402.54 pg/mL
